Source: ChEMBL document CHEMBL5729160, “Lysophosphatidic acid receptor 1 (LPAR1) inhibitor compounds” (2022)

Legend:
[1] = molecular target: T1, Lysophosphatidic acid receptor 3 (Homo sapiens, UniProt Q9UBY5); test: LPAR3 Calcium Flux Assays: A cDNA encoding the human LPAR3 receptor is synthesized and cloned into pDNA3 expression plasmid. The plasmid is transfected in U2OS cells using Lipofectamine 2000 (Invitrogen Corp., USA). Clones stably expressing human LPAR3 are selected using neomycin and identified as cells that show Ca-influx in response to LPA.U2OS cells overexpressing human LPAR3 are seeded at 20,000-40,000 cells per well in a 96-well poly-D-lysine coated plate one day before the assay. Prior to the assay, the cells are washed once with assay buffer (HBSS containing 20 mM HEPES and 0.2% BSA) and then incubated in 50 μl of assay buffer for 60 minutes. Then 50 μl of a calcium indicator dye (Fluo-4 NW, Molecular Probes) are added to each well and incubation is continued for 30 minutes at 37° C. and then 30 minutes at room temperature. 50 μl of test compounds in 4% DMSO are added to the cells and incubation continued at room temperature for 40 minutes. Cells are stimulated by the addition of 50 μl of 128 nM LPA and intracellular calcium is measured using the FLIPR TETRA (Molecular Devices). IC50 values are determined using “Genedata Screener” analysis tool.; type: cell-based
T1 sequence (Q9UBY5 whole entry): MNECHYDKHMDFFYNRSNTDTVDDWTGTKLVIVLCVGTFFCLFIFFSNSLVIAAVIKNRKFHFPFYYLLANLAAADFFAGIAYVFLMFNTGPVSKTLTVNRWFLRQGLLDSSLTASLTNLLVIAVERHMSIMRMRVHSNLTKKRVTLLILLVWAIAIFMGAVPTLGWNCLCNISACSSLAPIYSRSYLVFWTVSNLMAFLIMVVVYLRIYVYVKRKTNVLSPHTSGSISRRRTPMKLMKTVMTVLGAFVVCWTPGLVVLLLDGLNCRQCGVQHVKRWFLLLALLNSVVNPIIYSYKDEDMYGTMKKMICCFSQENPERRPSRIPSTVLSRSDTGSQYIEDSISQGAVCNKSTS

[2] = molecular target: Lysophosphatidic acid receptor 1 (Homo sapiens, UniProt Q92633); test: LPAR1 Calcium Flux Assays: A cDNA encoding the human LPAR1 receptor is synthesized and cloned into pDNA3 expression plasmid. The plasmid is transfected in U937 cells using Lipofectamine 2000 (Invitrogen Corp., USA). Clones stably expressing human LPAR1 are selected using […] and identified as cells that show Ca-influx in response to LPA.U937 cells overexpressing human LPAR1 are seeded at 100,000 cells per well in a 96-well fibronectin (10 ug/ml) coated plate in 60 μl of assay buffer (HBSS containing 20 mM HEPES and 0.2% BSA) and then incubated for 60 minutes. Then 50 μl of a calcium indicator dye (Fluo-4 NW, Molecular Probes) are added to each well and incubation continued for 30 minutes at 37° C. and then 30 minutes at room temperature. 50 μl of test compounds in 4% DMSO are added to the cells and incubation continued at room temperature for 40 minutes. Cells are the stimulated by the addition of 50 μl of 128 nM LPA and intracellular calcium is measured using the FLIPR TETRA (Molecular Devices). IC50 values are determined using “Genedata Screener” analysis tool.; type: cell-based
Chain of Lysophosphatidic acid receptor 1 (Q92633 whole entry): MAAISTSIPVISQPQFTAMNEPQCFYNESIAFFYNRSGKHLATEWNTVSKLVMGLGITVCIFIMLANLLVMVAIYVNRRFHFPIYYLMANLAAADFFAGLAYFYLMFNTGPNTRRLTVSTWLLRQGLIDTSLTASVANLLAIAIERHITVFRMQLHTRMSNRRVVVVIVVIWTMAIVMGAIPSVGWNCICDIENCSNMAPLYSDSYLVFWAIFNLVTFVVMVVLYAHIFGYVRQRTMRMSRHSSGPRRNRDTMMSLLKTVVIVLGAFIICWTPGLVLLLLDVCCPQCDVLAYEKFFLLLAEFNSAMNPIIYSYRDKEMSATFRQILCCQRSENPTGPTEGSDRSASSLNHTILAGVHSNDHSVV

- IC50 [1]: > 10000 nM
- IC50 [2]: 22 nM
SMILES: Cn1ncc(-c2ccc(-c3ccc(C4(C(=O)O)CC4)c(C(F)(F)F)c3)cn2)c1Nc1cncc(OC2CC2)n1
